The target in this test is human mGlu4 receptor (Homo sapiens (Human), UniProt Q14833). The test is described as follows: Ca2+ mobilization in vitro assay on recombinant human mGlu4 expressed in HEK293 cells (mGlu4 PAM). The format is cell-based. The note with it: for EC50: HEK293 cells stably expressing human mGlu4, L-AP4 added at EC20, read-out: EC50 (nM) mGlu4PAM; for Eff. (%): maximal response in % of the maximal stimulatory effect obtained with saturating concentrations of L-AP4. The procedure:
Determination of EC50 Values Using a Ca2+ Mobilization In Vitro Assay on Recombinant Human mGlu4 Expressed in HEK293 Cells:
A monoclonal HEK-293 cell line stably transfected with a cDNA encoding for the human mGlu4 receptor was generated; for the work with mGlu4 Positive Allosteric Modulators (PAMs), a cell line with low receptor expression levels and low constitutive receptor activity was selected to allow the differentiation of agonistic versus PAM activity. Cells were cultured according to standard protocols (Freshney, 2000) in Dulbecco's Modified Eagle Medium with high glucose supplemented with 1 mM glutamine, 10% (vol/vol) heat-inactivated bovine calf serum, Penicillin/Streptomycin, 50 μg/ml hygromycin and 15 μg/ml blasticidin (all cell culture reagents and antibiotics from Invitrogen, Basel, Switzerland).
About 24 hrs before an experiment, 5×10^4 cells/well were seeded in poly-D-lysine coated, black/clear-bottomed 96-well plates. The cells were loaded with 2.5 μM Fluo-4AM in loading buffer (1×HBSS, 20 mM HEPES) for 1 hr at 37° C. and washed five times with loading buffer. The cells were transferred into a Functional Drug Screening System 7000 (Hamamatsu, Paris, France), and 11 half logarithmic serial dilutions of test compound at 37° C. were added and the cells were incubated for 10-30 min. with on-line recording of fluorescence. Following this pre-incubation step, the agonist (2S)-2-amino-4-phosphonobutanoic acid (L-AP4) was added to the cells at a concentration corresponding to EC20 with on-line recording of fluorescence; in order to account for day-to-day variations in the responsiveness of cells, the EC20 of L-AP4 was determined immediately ahead of each experiment by recording of a full dose-response curve of L-AP4.
Responses were measured as peak increase in fluorescence minus basal (i.e. fluorescence without addition of L-AP4), normalized to the maximal stimulatory effect obtained with saturating concentrations of L-AP4. Graphs were plotted with the % maximal stimulatory using XLfit, a curve fitting program that iteratively plots the data using Levenburg Marquardt algorithm. The single site competition analysis equation used was y=A+((B−A)/(1+((x/C)D))), where y is the % maximal stimulatory effect, A is the minimum y, B is the maximum y, C is the EC50, x is the log 10 of the concentration of the competing compound and D is the slope of the curve (the Hill Coefficient). From these curves the EC50 (drug concentration at which 50% of the maximal receptor activation was achieved), the Hill coefficient as well as the maximal response in % of the maximal stimulatory effect obtained with saturating concentrations of L-AP4 were calculated (see FIG. 1).
A depression of the signal observed after addition of the EC20 concentration of L-AP4 was indicative of an inhibitory activity of the test compound. • FIG. 1: Illustration of the experimental outline for mGlu4 PAM Ca2+ mobilization screening assay and the determination of EC50 and % Emax values.
Background: Calcium assays in cells follow changes in intracellular calcium, usually with a dye or a luminescent sensor.

Consider 24 molecules from patent US9676732B2, “Ethynyl derivatives” (Hoffmann-La Roche Inc., priority 2013, dated 2017).

As a reminder, the EC50 is the concentration giving half of the maximal effect.

Chain of human mGlu4 receptor (Q14833 33-912): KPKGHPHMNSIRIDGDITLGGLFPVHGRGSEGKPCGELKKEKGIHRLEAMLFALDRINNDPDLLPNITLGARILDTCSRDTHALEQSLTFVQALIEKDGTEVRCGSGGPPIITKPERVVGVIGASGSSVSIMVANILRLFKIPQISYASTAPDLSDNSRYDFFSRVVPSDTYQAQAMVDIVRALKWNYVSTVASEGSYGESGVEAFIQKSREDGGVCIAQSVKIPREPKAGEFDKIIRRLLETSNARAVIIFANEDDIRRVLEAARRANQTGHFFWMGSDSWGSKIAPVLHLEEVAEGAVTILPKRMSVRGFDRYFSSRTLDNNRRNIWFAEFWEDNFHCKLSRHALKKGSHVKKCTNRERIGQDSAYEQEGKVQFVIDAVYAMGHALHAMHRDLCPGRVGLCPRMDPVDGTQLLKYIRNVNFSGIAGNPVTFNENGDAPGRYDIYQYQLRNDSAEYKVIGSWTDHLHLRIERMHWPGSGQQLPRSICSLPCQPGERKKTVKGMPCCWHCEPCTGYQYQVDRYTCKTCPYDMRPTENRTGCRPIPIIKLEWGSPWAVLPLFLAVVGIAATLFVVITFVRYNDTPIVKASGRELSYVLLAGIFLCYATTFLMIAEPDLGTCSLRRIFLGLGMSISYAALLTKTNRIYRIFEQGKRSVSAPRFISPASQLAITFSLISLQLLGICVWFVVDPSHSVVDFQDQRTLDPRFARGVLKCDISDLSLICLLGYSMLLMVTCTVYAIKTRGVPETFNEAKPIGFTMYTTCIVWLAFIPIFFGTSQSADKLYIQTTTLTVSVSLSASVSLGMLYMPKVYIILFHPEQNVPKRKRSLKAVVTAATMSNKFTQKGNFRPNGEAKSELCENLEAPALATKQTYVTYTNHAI

With `CC(C)n1c(=O)n(-c2ncc(C#Cc3cccnc3)cc2Cl)c(=O)c2nn(C)cc21` [Example 59, 6-[3-Chloro-5-[2-(3-pyridyl)ethynyl]-2-pyridyl]-4-isopropyl-2-methyl-pyrazolo[4,3-d]pyrimidine-5,7-dione], the EC50 turned out to be 169 nM and the “Eff. (%)” value was determined as 146%.

Take `CC(C)n1c(=O)n(-c2ncc(C#Cc3ccccc3)cc2Cl)c(=O)c2ccccc21` [Example 45, 3-[3-Chloro-5-(2-phenylethynyl)-2-pyridyl]-1-isopropyl-quinazoline-2,4-dione]: the EC50 is 137 nM and the “Eff. (%)” value came to 92%.

In the case of `CCc1cccc2c(=O)n(-c3ccc(C#Cc4ccccc4)cc3Cl)c(=O)n(C)c12` [Example 8, 3-[2-Chloro-4-(2-phenylethynyl)phenyl]-8-ethyl-1-methyl-quinazoline-2,4-dione], the EC50 was found to be 65 nM and the “Eff. (%)” value came to 100%.

In the case of `Cc1cccc2c(=O)n(-c3c(F)cc(C#Cc4cccnc4)cc3Cl)c(=O)n(C)c12` [Example 43, 3-[2-Chloro-6-fluoro-4-[2-(3-pyridyl)ethynyl]phenyl]-1,8-dimethyl-quinazoline-2,4-dione], the EC50 was found to be 74 nM and the “Eff. (%)” value is recorded as 107%.

For `CC(C)n1c(=O)n(-c2c(F)cc(C#Cc3ccccc3)cc2F)c(=O)c2nsnc21` [Example 40, 6-[2,6-Difluoro-4-(2-phenylethynyl)phenyl]-4-isopropyl-[1,2,5]thiadiazolo[3,4-d]pyrimidine-5,7-dione], the EC50 was found to be 23 nM and the “Eff. (%)” value came to 104%.

Turning to `CC(C)n1c(=O)n(-c2ncc(C#Cc3ccccc3)cc2F)c(=O)c2nn(C)cc21` [Example 56, 6-[3-Fluoro-5-(2-phenylethynyl)-2-pyridyl]-4-isopropyl-2-methyl-pyrazolo[4,3-d]pyrimidine-5,7-dione], the EC50 was determined as 121 nM and the “Eff. (%)” value worked out at 120%.

In the case of `Cc1cccc2c(=O)n(-c3ccc(C#Cc4ccccc4)cc3Cl)c(=O)n(C)c12` [Example 2, 3-[2-Chloro-4-(2-phenylethynyl)phenyl]-1,8-dimethyl-quinazoline-2,4-dione], the EC50 worked out at 94 nM and the “Eff. (%)” value was determined as 99%.

Regarding `Cc1csc2c(=O)n(-c3c(F)cc(C#Cc4ccccc4)cc3F)c(=O)n(C)c12` [Example 27, 3-[2,6-Difluoro-4-(2-phenylethynyl)phenyl]-1,7-dimethyl-thieno[3,2-d]pyrimidine-2,4-dione], the EC50 was determined as 16 nM and the “Eff. (%)” value amounted to 83%.

For the molecule `Cn1cc2c(n1)c(=O)n(-c1c(F)cc(C#Cc3ccccc3)cc1F)c(=O)n2C` [Example 33, 6-[2,6-Difluoro-4-(2-phenylethynyl)phenyl]-2,4-dimethyl-pyrazolo[4,3-d]pyrimidine-5,7-dione], the EC50 amounted to 47 nM and the “Eff. (%)” value stood at 86%.

As for `CC(C)n1c(=O)n(-c2ccc(C#Cc3ccccc3)cn2)c(=O)c2ccccc21` [Example 55, 1-Isopropyl-3-[5-(2-phenylethynyl)-2-pyridyl]quinazoline-2,4-dione], the EC50 amounted to 766 nM and the “Eff. (%)” value was 123%.

As to `Cn1c(=O)n(-c2ncc(C#Cc3ccccc3)cc2C(F)(F)F)c(=O)c2ccccc21` [Example 48, 1-Methyl-3-[5-(2-phenylethynyl)-3-(trifluoromethyl)-2-pyridyl]quinazoline-2,4-dione], the EC50 was 175 nM and the “Eff. (%)” value was found to be 95%.

Consider `CC(C)n1c(=O)n(-c2c(F)cc(C#Cc3ccccc3)cc2F)c(=O)c2c1cnn2C` [Example 36, 6-[2,6-Difluoro-4-(2-phenylethynyl)phenyl]-4-isopropyl-1-methyl-pyrazolo[4,3-d]pyrimidine-5,7-dione], for which the EC50 amounted to 155 nM and the “Eff. (%)” value was 89%.

Consider `Cc1cccc2c(=O)n(-c3c(F)cc(C#Cc4ccccc4)cc3F)c(=O)n(C)c12` [Example 24, 3-[2,6-Difluoro-4-(2-phenylethynyl)phenyl]-1,8-dimethyl-quinazoline-2,4-dione], for which the EC50 is 26 nM and the “Eff. (%)” value stood at 101%.

Turning to `Cn1c(=O)n(-c2ncc(C#Cc3ccccc3)cc2Cl)c(=O)c2ccccc21` [Example 44, 3-[3-Chloro-5-(2-phenylethynyl)-2-pyridyl]-1-methyl-quinazoline-2,4-dione], the EC50 worked out at 372 nM and the “Eff. (%)” value was determined as 180%.

As to `CC(C)n1c(=O)n(-c2ccc(C#Cc3cccnc3)cc2Cl)c(=O)c2nccnc21` [Example 22, 3-[2-Chloro-4-[2-(3-pyridyl)ethynyl]phenyl]-1-isopropyl-pteridine-2,4-dione], the EC50 turned out to be 167 nM and the “Eff. (%)” value is recorded as 88%.

Regarding `Cn1c(=O)n(-c2ccc(C#Cc3ccccc3)cc2Cl)c(=O)c2ccc(Cl)cc21` [Example 4, 7-Chloro-3-[2-chloro-4-(2-phenylethynyl)phenyl]-1-methyl-quinazoline-2,4-dione], the EC50 was determined as 220 nM and the “Eff. (%)” value stood at 120%.

In the case of `Cn1c(=O)n(-c2c(F)cc(C#Cc3ccccc3)cc2F)c(=O)c2nccc(Cl)c21` [Example 61, 8-Chloro-3-[2,6-difluoro-4-(2-phenylethynyl)phenyl]-1-methyl-pyrido[3,2-d]pyrimidine-2,4-dione], the EC50 stood at 91 nM and the “Eff. (%)” value was 129%.

In the case of `O=c1c2ccccc2n(C2CCC2)c(=O)n1-c1ccc(C#Cc2ccccc2)cc1Cl` [Example 53, 3-[2-Chloro-4-(2-phenylethynyl)phenyl]-1-cyclobutyl-quinazoline-2,4-dione], the EC50 amounted to 102 nM and the “Eff. (%)” value is listed as 123%.

As to `Cn1c(=O)n(-c2c(F)cc(C#Cc3ccccc3)cc2F)c(=O)c2ccccc21` [Example 23, 3-[2,6-Difluoro-4-(2-phenylethynyl)phenyl]-1-methyl-quinazoline-2,4-dione], the EC50 is 203 nM and the “Eff. (%)” value came to 168%.

With `Cn1ncc2c1c(=O)n(-c1c(F)cc(C#Cc3ccccc3)cc1F)c(=O)n2C` [Example 34, 6-[2,6-Difluoro-4-(2-phenylethynyl)phenyl]-1,4-dimethyl-pyrazolo[4,3-d]pyrimidine-5,7-dione], the EC50 was determined as 74 nM and the “Eff. (%)” value is 85%.

Turning to `Cn1c(=O)n(-c2ccc(C#Cc3ccccc3)cc2Cl)c(=O)c2ncsc21` [Example 67, 6-[2-Chloro-4-(2-phenylethynyl)phenyl]-4-methyl-thiazolo[5,4-d]pyrimidine-5,7-dione], the EC50 is 246 nM and the “Eff. (%)” value stood at 188%.

On to `Cn1c(=O)n(-c2ccc(C#Cc3ccccc3)cc2Cl)c(=O)c2cccc(Cl)c21` [Example 3, 8-Chloro-3-[2-chloro-4-(2-phenylethynyl)phenyl]-1-methyl-quinazoline-2,4-dione], for which the concentration for a half-maximal effect (EC50) is 137 nM and the “Eff. (%)” value was 93%.

As for `Cc1cccc2c(=O)n(-c3ncc(C#Cc4ccccc4)cc3F)c(=O)n(C)c12` [Example 49, 3-[3-Fluoro-5-(2-phenylethynyl)-2-pyridyl]-1,8-dimethyl-quinazoline-2,4-dione], the EC50 was 302 nM and the “Eff. (%)” value came out at 111%.

Consider `Cn1cc2c(=O)n(-c3c(F)cc(C#Cc4ccccc4)cc3F)c(=O)n(C)c2n1` [Example 62, 5-[2,6-Difluoro-4-(2-phenylethynyl)phenyl]-2,7-dimethyl-pyrazolo[3,4-d]pyrimidine-4,6-dione], for which the concentration giving a half-maximal response (EC50) worked out at 137 nM and the “Eff. (%)” value was determined as 145%.
